{
  "source": "patent US5480888A",
  "about": "“Inhibitor for restenosis after percutaneous coronary arterioplasty” (Daiichi Pharmaceutical Co., Ltd., priority 1992, dated 1996)",
  "system": "post PTCA vessels",
  "test": "Clinical test: restenosis after elective PTCA in patients with angina pectoris (coronary angiography, video-densitometry)",
  "type": "in vivo",
  "procedure": "29 patients suffering from angina pectoris who received elective PTCA (43 sites ) orally took 2-phenyl-1,2-benzoisoselenazol-3(2H )-one (hereinafterreferred to as compound A) after meal with a daily dose of 200 mg, twice a day, 100 mg for each time, starting from three days prior to the PTCA operation over 3 months after operation (treated group ). […] The stenosed degree was measured by video-densitometry (Reiber JHC et al., Circulation 1985; 71:280-288), and inhibition of restenosis was evaluated on the basis of the findings. […]\nIn both of the treated and control groups, calcium antagonists such as nifedipine and diltiazem, and antiarteriosclerotic agents such as elastase were concurrently administered as required. As a result, there was no significant difference according to the .chi.^2 test between the two groups with regard to the use of concomitant compounds and other patient characteristics including the age, the site of the lesion, etc.",
  "data": [
    {"molecule": "O=c1c2ccccc2[se]n1-c1ccccc1", "note": "[compound A, 2-phenyl-1,2-benzoisoselenazol-3(2H)-one]", "values": [
      {"measurement": "onset rate of restenosis based on the number of patients", "setting": "6 months after operation, treated group, 29 patients, control 38.2%", "result": 18.6, "unit": "%"},
      {"measurement": "inhibition of restenosis in the location of operation", "setting": "compared to the control group, Table 2", "result": "remarkable inhibition of restenosis"},
      {"measurement": "Stenosed Degree Before PTCA", "setting": "treated group, 43 sites, 100 mg twice a day orally from three days prior to PTCA, control 87 +/- 11", "result": "89 +/- 10"},
      {"measurement": "Stenosed Degree 3 Months after PTCA", "setting": "treated group, 43 sites, 100 mg twice a day orally, control 78 +/- 39, *P<0.05 vs Placebo, Chi square analysis", "result": "54 +/- 31"},
      {"measurement": "Stenosed Degree After PTCA", "setting": "treated group, 43 sites, immediately after PTCA, 100 mg twice a day orally, control 32 +/- 23", "result": "35 +/- 28"}
    ]}
  ]
}
